Assay results from ChEMBL document CHEMBL6177972 (J Nat Prod, 2025).

Assays:
Assay type in all cases: functional, cell-based
[1] = tested on: K562; assay: Anticancer activity against human K562 cells assessed as cell growth inhibition incubated for 4 days by MTT assay; details: K562, 96 h
[2] = Anticancer activity against human MM649 cells assessed as cell growth inhibition incubated for 4 days by MTT assay; details: MM649, 96 h
[3] = tested on: HeLa; assay: Anticancer activity against human HeLa cells assessed as cell growth inhibition incubated for 4 days by MTT assay; details: 96 h

Row | Compound | IC50 [1] | IC50 [2] | IC50 [3]
1 | CCCCCCCCCCCCC[C@H]1CC(=O)C[C@@]2(C[C@@H]3OC(=O)C=C[C@@H]3O2)O1 | 11.9 µM | 3.1 µM | 3.9 µM
2 | CC(=O)O[C@H]1C[C@H](C[C@@H](O)CCCCCCCCc2ccc3c(c2)OCO3)O[C@@]2(C1)C[C@@H]1OC(=O)C=C[C@@H]1O2 | 39.6 µM | 24.5 µM | 27.1 µM
3 | O=C1C[C@H](CCCCCCCCc2ccc3c(c2)OCO3)O[C@@]2(C1)C[C@@H]1OC(=O)C=C[C@@H]1O2 | 16.6 µM | 5.9 µM | 5.9 µM
4 | O=C1C=C[C@H](O)[C@H](CCCCCCCCc2ccc3c(c2)OCO3)O1 | 13.6 µM | 7.6 µM | 5.6 µM
5 | CCCCCCCCCCCCC[C@H]1C[C@H](O)C[C@@]2(C[C@@H]3OC(=O)C=C[C@@H]3O2)O1 | 15.6 µM | 2.7 µM | 4.2 µM
6 | O=C1C=C[C@@H]2O[C@]3(C[C@@H](O)C[C@H](CCCCCCCCc4ccc5c(c4)OCO5)O3)C[C@@H]2O1 | 25.1 µM | 10.8 µM | 13.6 µM
7 | O=C1C=C[C@@H]2O[C@]3(C[C@@H](O)C[C@H](C[C@@H](O)CCCCCCCCc4ccc5c(c4)OCO5)O3)C[C@@H]2O1 | 25.8 µM | 14.9 µM | 18.1 µM
8 | CCCCCCCCCCCCC[C@H]1C[C@H](OC(C)=O)C[C@@]2(C[C@@H]3OC(=O)C=C[C@@H]3O2)O1 | 10.5 µM | 1.9 µM | 2.3 µM
9 | CC(=O)O[C@H]1C[C@H](CCCCCCCCc2ccc3c(c2)OCO3)O[C@@]2(C1)C[C@@H]1OC(=O)C=C[C@@H]1O2 | 13.5 µM | 3.9 µM | 4.5 µM
10 | CCCCCCCCCCCCC[C@H](O)C[C@H]1C[C@H](O)C[C@@]2(C[C@@H]3OC(=O)C=C[C@@H]3O2)O1 | 20.3 µM | 3.3 µM | 5.1 µM
11 | COc1cccc2c1C(=O)c1c(O)c3c(c(O)c1C2=O)C[C@@](O)(C(=O)CO)C[C@@H]3O[C@H]1C[C@H](N)[C@H](O)[C@H](C)O1 [DOXORUBICIN] | 0.12 µM | 0.05 µM | –
